In this assay the target is T1, IRAK4 (Homo sapiens, UniProt Q9NWZ3).
T1 construct: 293Tcells expressing HiBiT-tagged IRAK4 were then added into 384-well plates
T1 sequence (Q9NWZ3 1-460): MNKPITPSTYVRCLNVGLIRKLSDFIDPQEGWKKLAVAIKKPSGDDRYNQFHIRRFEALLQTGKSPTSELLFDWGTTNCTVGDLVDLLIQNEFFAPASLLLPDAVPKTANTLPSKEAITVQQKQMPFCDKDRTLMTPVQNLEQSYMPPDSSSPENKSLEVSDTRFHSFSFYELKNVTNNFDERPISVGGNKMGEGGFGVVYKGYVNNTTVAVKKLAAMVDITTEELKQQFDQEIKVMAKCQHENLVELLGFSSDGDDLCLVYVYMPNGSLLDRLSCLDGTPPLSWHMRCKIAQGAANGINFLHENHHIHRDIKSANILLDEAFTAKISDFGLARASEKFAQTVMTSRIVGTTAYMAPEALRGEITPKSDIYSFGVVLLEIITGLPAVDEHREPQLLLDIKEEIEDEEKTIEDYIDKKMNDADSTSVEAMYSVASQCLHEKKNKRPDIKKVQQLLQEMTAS
The assay is described as follows: IRAK4 Degradation Assay, HiBiT Method. In kind it is cell-based. Particulars: 293T cells expressing HiBiT-tagged IRAK4, 6 hours. An outline of the steps:
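Luminescent read-out with Nano-Glo HiBiT lytic reagent after 6 h compound exposure at 37 °C. Cells were HiBiT-IRAK4 knock-in 293T (C-terminal tag), 10,000 per well. Compounds ran as 11-point half-log dilutions from […] highest dose, duplicate wells; DMSO served as negative control.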
One may read the DC50 as the concentration at which degradation of the target reaches its halfway point. Low values mean degradation at low concentration, high ones degradation only at high concentration. Consider `CC(C)Oc1cc2nn([C@H]3CC[C@H](CN4CC[C@H](c5ccc6c(N7CCC(=O)NC7=O)nn(C)c6c5)[C@H](O)C4)CC3)cc2cc1C(=O)Nc1cccn(C2C[C@H]2F)c1=O` (stereo partly drawn) [Example 116, 2-((1S,4S)-4-(((3S,4R)-4-(3-(2,4-dioxotetrahydropyrimidin-1(2H)-yl)-1-methyl-1H-indazol-6-yl)-3-hydroxypiperidin-1-yl)methyl)cyclohexyl)-N-(1-((1S,2R)-2-fluorocyclopropyl)-2-oxo-1,2-dihydropyridin-3-yl)-6-isopropoxy-2H-indazole-5-carboxamide], for which the DC50 was less than 10 nM.

As to `CC(C)Oc1cc2nc(C3CCN(C(=O)CN4CCC(c5ccc(C6(F)CCC(=O)NC6=O)cc5)CC4)CC3)cn2cc1C(=O)Nc1cnn2cccnc12` (stereo not shown) [Example 89, 2-[1-[2-[4-[4-(3-fluoro-2,6-dioxo-3-piperidyl)phenyl]-1-piperidyl]acetyl]-4-piperidyl]-7-isopropoxy-N-pyrazolo[1,5-a]pyrimidin-3-yl-imidazo[1,2-a]pyridine-6-carboxamide], the DC50 was less than 10 nM.

Take `CC(C)Oc1nc2nc(C3CCN(C(=O)CC4CCN(c5ncc(C6CCC(=O)NC6=O)cc5F)CC4)CC3)cn2cc1C(=O)Nc1cccn([C@H]2C[C@H]2F)c1=O` (stereo partly drawn) [Example 186, 2-(1-(2-(1-(5-(2,6-dioxopiperidin-3-yl)-3-fluoropyridin-2-yl)piperidin-4-yl)acetyl)piperidin-4-yl)-N-(1-((1S,2R)-2-fluorocyclopropyl)-2-oxo-1,2-dihydropyridin-3-yl)-7-isopropoxyimidazo[1,2-a]pyrimidine-6-carboxamide]: the DC50 was less than 10 nM.

`CO[C@H]1CN(C[C@H]2CC[C@H](n3cc4cc(C(=O)Nc5cccn(C6CC6)c5=O)c(OC(C)C)cc4n3)CC2)CC[C@H]1c1ccc2c(N3CCC(=O)NC3=O)nn(C)c2c1` [Example 140, N-(1-cyclopropyl-2-oxo-1,2-dihydropyridin-3-yl)-2-((1R,4r)-4-(((3R,4S)-4-(3-(2,4-dioxotetrahydropyrimidin-1(2H)-yl)-1-methyl-1H-indazol-6-yl)-3-methoxypiperidin-1-yl)methyl)cyclohexyl)-6-isopropoxy-2H-indazole-5-carboxamide] displayed a DC50 of less than 10 nM.

Take `CC(C)Oc1cc2nn(C3CCN(C(=O)CC4(O)CCN(c5ccc(NC6CCC(=O)NC6=O)cc5)CC4)CC3)cc2cc1C(=O)Nc1cccc(C(F)(F)F)n1` (stereo not shown) [Example 58, 2-[1-[2-[1-[4-[(2,6-dioxo-3-piperidyl)amino]phenyl]-4-hydroxy-4-piperidyl]acetyl]-4-piperidyl]-6-isopropoxy-N-[6-(trifluoromethyl)-2-pyridyl]indazole-5-carboxamide]: the DC50 lay in the range of 10 to 100 nM.

For the compound `CC(C)Oc1cc2nc([C@H]3CC[C@H](CN4CCC(c5ccc(C6(F)CCC(=O)NC6=O)cc5)CC4)CC3)cn2cc1C(=O)Nc1cccc(C(F)F)n1` (stereo partly shown) [Example 45, N-[6-(difluoromethyl)-2-pyridyl]-2-[4-[[4-[4-(3-fluoro-2,6-dioxo-3-piperidyl)phenyl]-1-piperidyl]methyl]cyclohexyl]-7-isopropoxy-imidazo[1,2-a]pyridine-6-carboxamide], the DC50 lay within 100 to 500 nM.

In turn, `CC(C)Oc1cc2nc([C@H]3CC[C@H](CN(C)C4CCN(c5ccc6c(c5)n(C)c(=O)n6C5CCC(=O)NC5=O)CC4)CC3)cn2cc1C(=O)Nc1cccc(C(F)(F)F)n1` (stereo partly shown) [Example 10, 2-[4-[[[1-[1-(2,6-dioxo-3-piperidyl)-3-methyl-2-oxo-benzimidazol-5-yl]-4-piperidyl]-methyl-amino]methyl]cyclohexyl]-7-isopropoxy-N-[6-(trifluoromethyl)-2-pyridyl]imidazo[1,2-a]pyridine-6-carboxamide] came in with a DC50 of 10 to 100 nM.

In turn, `CC(C)Oc1cc2nn(C3CCN(C(=O)CN4CCC(c5ccc(NC6CCC(=O)NC6=O)cc5F)CC4)CC3)cc2cc1C(=O)Nc1cccc(C(F)(F)F)n1` (stereo not shown) [Example 61, 2-[1-[2-[4-[4-[(2,6-dioxo-3-piperidyl)amino]-2-fluoro-phenyl]-1-piperidyl]acetyl]-4-piperidyl]-6-isopropoxy-N-[6-(trifluoromethyl)-2-pyridyl]indazole-5-carboxamide] showed a DC50 of 100 to 500 nM.

Consider `CC(C)Oc1cc2nc([C@H]3CC[C@H](CN4CCC(c5ccc(CN6CCC(=O)NC6=O)cc5)CC4)CC3)cn2cc1C(=O)Nc1cccc(C(F)F)n1` [Example 37, N-[6-(difluoromethyl)-2-pyridyl]-2-[4-[[4-[4-[(2,4-dioxohexahydropyrimidin-1-yl)methyl]phenyl]-1-piperidyl]methyl]cyclohexyl]-7-isopropoxy-imidazo[1,2-a]pyridine-6-carboxamide], for which the half-maximal degradation concentration (DC50) was in the range of 10 to 100 nM.

In the case of `CC(C)Oc1cc2nc([C@H]3CC[C@H](C(=O)NC4CCN(c5ccc(C6CCC(=O)NC6=O)cn5)CC4)CC3)cn2cc1C(=O)Nc1cnn2cccnc12` (stereo partly shown) [Example 182, 2-((1r,4r)-4-((1-(5-(2,6-dioxopiperidin-3-yl)pyridin-2-yl)piperidin-4-yl)carbamoyl)cyclohexyl)-7-isopropoxy-N-(pyrazolo[1,5-a]pyrimidin-3-yl)imidazo[,2-a]pyridine-6-carboxamide], the 50% degradation concentration (DC50) is less than 10 nM.

In the case of `CC(C)Oc1cc2nn([C@H]3CC[C@H](CN4CC[C@@H](c5ccc6c(C7CCC(=O)NC7=O)nn(C)c6c5)[C@@H](O)C4)CC3)cc2cc1C(=O)Nc1cccn([C@H]2C[C@H]2F)c1=O` (stereo partly drawn) [Example 133, 2-((1R,4S)-4-(((3R,4S)-4-(3-(2,6-dioxopiperidin-3-yl)-1-methyl-1H-indazol-6-yl)-3-hydroxypiperidin-1-yl)methyl)cyclohexyl)-N-(1-((1S,2R)-2-fluorocyclopropyl)-2-oxo-1,2-dihydropyridin-3-yl)-6-isopropoxy-2H-indazole-5-carboxamide], the 50% degradation concentration (DC50) is less than 10 nM.

`CC(C)Oc1cc2nc(C3CCC(CN4CCC(c5ccc(C6CCC(=O)NC6=O)cc5)CC4)CC3)cn2cc1C(=O)Nc1cccc(C(F)F)n1` (stereo not shown) [Example 15, N-[6-(difluoromethyl)-2-pyridyl]-2-[4-[[4-[4-(2,6-dioxo-3-piperidyl)phenyl]-1-piperidyl]methyl]cyclohexyl]-7-isopropoxy-imidazo[1,2-a]pyridine-6-carboxamide] had a DC50 of 10 to 100 nM.

Turning to `CC(C)Oc1cc2nn([C@H]3CC[C@H](CN4CC5(CCN(c6ncc(C7CCC(=O)NC7=O)cc6F)CC5)C4)CC3)cc2cc1C(=O)Nc1cccn(C2CC2)c1=O` (stereo partly shown) [Example 124, N-(1-cyclopropyl-2-oxo-1,2-dihydropyridin-3-yl)-2-((r,4r)-4-((7-(5-(2,6-dioxopiperidin-3-yl)-3-fluoropyridin-2-yl)-2,7-diazaspiro[3.5]nonan-2-yl)methyl)cyclohexyl)-6-isopropoxy-2H-indazole-5-carboxamide], the DC50 was less than 10 nM.

Take `CC(C)Oc1cc2nn([C@H]3CC[C@H](CN4CCCC(c5ccc(OC6CCC(=O)NC6=O)cc5)C4)CC3)cc2cc1C(=O)Nc1cccn(C2CC2)c1=O` (stereo partly shown) [Example 118, N-(1-cyclopropyl-2-oxo-1,2-dihydropyridin-3-yl)-2-((1r,4r)-4-((3-(4-((2,6-dioxopiperidin-3-yl)oxy)phenyl)piperidin-1-yl)methyl)cyclohexyl)-6-isopropoxy-2H-indazole-5-carboxamide]: the half-maximal degradation concentration (DC50) is 10 to 100 nM.

`CC(C)Oc1cc2nc([C@H]3CC[C@H](CN(C)C4CCN(c5ccc(C6CCC(=O)NC6=O)cc5)CC4)CC3)cn2cc1C(=O)Nc1cccc(C(F)F)n1` (stereo partly shown) [Example 30, N-[6-(difluoromethyl)-2-pyridyl]-2-[4-[[[1-[4-(2,6-dioxo-3-piperidyl)phenyl]-4-piperidyl]-methyl-amino]methyl]cyclohexyl]-7-isopropoxy-imidazo[1,2-a]pyridine-6-carboxamide] had a half-maximal degradation concentration (DC50) of less than 10 nM.

`CC(C)Oc1cc2nc(C3CCN(CC(=O)N4CCC(c5cc(F)c(C6CCC(=O)NC6=O)cc5F)CC4)CC3)cn2cc1C(=O)Nc1cnn2cccnc12` (stereo not shown) [Example 100, 2-[1-[2-[4-[4-(2,6-dioxo-3-piperidyl)-2,5-difluoro-phenyl]-1-piperidyl]-2-oxo-ethyl]-4-piperidyl]-7-isopropoxy-N-pyrazolo[1,5-a]pyrimidin-3-yl-imidazo[1,2-a]pyridine-6-carboxamide] displayed a 50% degradation concentration (DC50) of 10 to 100 nM.

In the case of `CC(C)Oc1cc2nn([C@H]3CC[C@H](CN4CC[C@@H](c5ccc6c(N7CCC(=O)NC7=O)nn(C)c6c5)[C@H](O)C4)CC3)cc2cc1C(=O)Nc1cccn([C@H]2C[C@H]2F)c1=O` [Example 132, 2-((1S,4S)-4-(((3S,4S)-4-(3-(2,4-dioxotetrahydropyrimidin-1(2H)-yl)-1-methyl-1H-indazol-6-yl)-3-hydroxypiperidin-1-yl)methyl)cyclohexyl)-N-(1-((1S,2R)-2-fluorocyclopropyl)-2-oxo-1,2-dihydropyridin-3-yl)-6-isopropoxy-2H-indazole-5-carboxamide], the 50% degradation concentration (DC50) is less than 10 nM.

`CC(C)Oc1nc2nc([C@H]3CC[C@H](CN4CCC(c5ccc6c(c5)n(C)c(=O)n6C5CCC(=O)NC5=O)CC4)CC3)cn2cc1C(=O)Nc1cccn([C@H]2C[C@H]2F)c1=O` (stereo partly shown) [Example 192] displayed a DC50 of less than 10 nM.

`CC(C)Oc1cc2nc([C@H]3CC[C@H](CN4CCC(c5ccc(NC6CCC(=O)NC6=O)cc5)CC4)CC3)cn2cc1C(=O)Nc1cccc(C(F)F)n1` (stereo partly shown) [Example 16, N-[6-(difluoromethyl)-2-pyridyl]-2-[4-[[4-[4-[(2,6-dioxo-3-piperidyl)amino]phenyl]-1-piperidyl]methyl]cyclohexyl]-7-isopropoxy-imidazo[1,2-a]pyridine-6-carboxamide] displayed a DC50 of 10 to 100 nM.

The record behind these values is US20240343733A1, “COMPOUNDS FOR TARGETING DEGRADATION OF IRAK4 PROTEINS” (BIOGEN MA INC., priority 2021, published 2024).
